Laboratory results published in US12227520B2 (priority 2019, dated 2025).
Read-outs that look alike come from different tables or passages of the source.

Tests used:
HIV-1 (IIIB) = experiment: Antiviral assay in MT-4 cells (HIV MT-4 antiviral assay); assay type: cell-based; details: Human immunodeficiency virus 1, IIIB, MT4, 120 h, HIV-1 (IIIB) in MT-4 cells, 5 days incubation; read-out: EC50
Method in brief: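 MT-4 cells infected with HIV-1 IIIB (1:250 diluted stock) and exposed to 1:3 serially diluted compound in RPMI with 10% FBS. Viability read by CellTiter-Glo luminescence after 5 days at 37° C; mock-infected cells and 5 μM AZT as controls.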

[1] = Cytotoxicity assay in MT-4 cells; assay type: cell-based, human; details: human, uninfected MT-4 cells, 5 days incubation; read-out: CC50
Method in brief: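 Infected MT-4 cells (HIV-1 IIIB, fresh 1:250 dilution of concentrated stock) or mock-infected cells exposed to compounds for 5 days at 37 °C. Viability by CellTiter-Glo luminescence; 5 μM AZT positive control, no-drug negative control. Uninfected cells used for cytotoxicity, with 10 μM puromycin as base-level cytotoxicity control.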

pLai RLuc reporter virus = experiment: microbe, parasite or virus in culture; assay type: cell-based, HIV; details: Human immunodeficiency virus 1, 72 h
Method in brief: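 MT-4 cells pre-infected 2 h at 37 °C with pLai RLuc virus, then exposed to 1:3 serial dilutions of compound in RPMI/10% FBS with or without 50% human serum for 72 h at 37 °C. Renilla luminescence read-out; serum shift = EC50(HS/CCM)/EC50(CCM).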

[2] = read-out: Antiviral Serum Shift RLuc 50% HS, HS/CCM (RPMI media, 10% FBS, 50% HS, 1% P/S), 72-h incubation
[3] = read-out: Antiviral Serum Shift RLuc CCM, CCM (RPMI media, 10% FBS, 1% P/S), 72-h incubation

O=C(NCc1c(F)cc(F)cc1F)c1cn2c(c(O)c1=O)C(=O)N1CCCC[C@H]2C1 [Example 26-2, (7S)-12-hydroxy-1,11-dioxo-N-(2,4,6-trifluorobenzyl)-1,4,5,6,7,11-hexahydro-3H-2,7-methanopyrido[1,2-a][1,4]diazonine-10-carboxamide]
EC50 (HIV-1 (IIIB)): 1.31 nM | CC50 at 5 days [1]: 14400 nM | EC50 (pLai RLuc reporter virus; [2]): 2.29 nM | EC50 (pLai RLuc reporter virus; [3]): 0.353 nM

C[C@H]1C(F)=CC[C@H]2CN1C(=O)c1c(O)c(=O)c(C(=O)NCc3c(F)cc(F)cc3F)cn12 [Example 154-1, (3S,7S)-4-fluoro-12-hydroxy-3-methyl-1,11-dioxo-N-(2,4,6-trifluorobenzyl)-1,6,7,11-tetrahydro-3H-2,7-methanopyrido[1,2-a][1,4]diazonine-10-carboxamide]
EC50 (HIV-1 (IIIB)): 1.64 nM | CC50 at 5 days [1]: 25700 nM | EC50 (pLai RLuc reporter virus; [2]): 4.29 nM | EC50 (pLai RLuc reporter virus; [3]): 0.297 nM

O=C(NCc1c(F)cc(F)cc1F)c1cn2c(c(O)c1=O)C(=O)N1CC[C@@H](F)CC[C@H]2C1 [Example 81-2, (5S,8S)-5-fluoro-13-hydroxy-1,12-dioxo-N-(2,4,6-trifluorobenzyl)-1,3,4,5,6,7,8,12-octahydro-2,8-methanopyrido[1,2-a][1,4]diazecine-11-carboxamide]
EC50 (HIV-1 (IIIB)): 1.35 nM | CC50 at 5 days [1]: 11200 nM | EC50 (pLai RLuc reporter virus; [2]): 0.737 nM | EC50 (pLai RLuc reporter virus; [3]): 0.304 nM

O=C(NCc1ccc(F)cc1F)c1cn2c(c(O)c1=O)C(=O)N1CCCOC[C@@H]2C1 [Example 1-1, (S)-N-(2,4-difluorobenzyl)-13-hydroxy-1,12-dioxo-1,4,5,7,8,12-hexahydro-3H-2,8-methanopyrido[1,2-d][1,4,7]oxadiazecine-11-carboxamide]
EC50 (HIV-1 (IIIB)): 16.5 nM | CC50 at 5 days [1]: > 50000 nM | EC50 (pLai RLuc reporter virus; [2]): 4.85 nM | EC50 (pLai RLuc reporter virus; [3]): 3.64 nM

C[C@@H]1CO[C@H](C)[C@H]2CN1C(=O)c1c(O)c(=O)c(C(=O)NCc3c(F)cc(F)cc3F)cn12 [Example 196, (3R,6R,7R)-12-hydroxy-3,6-dimethyl-1,11-dioxo-N-(2,4,6-trifluorobenzyl)-1,3,4,6,7,11-hexahydro-2,7-methanopyrido[1,2-d][1,4,7]oxadiazonine-10-carboxamide]
EC50 (HIV-1 (IIIB)): 2.08 nM | CC50 at 5 days [1]: 25900 nM | EC50 (pLai RLuc reporter virus; [2]): 14.3 nM | EC50 (pLai RLuc reporter virus; [3]): 0.469 nM

C[C@H]1CC[C@H](C)N2C[C@H]1n1cc(C(=O)NCc3ccc(F)cc3F)c(=O)c(O)c1C2=O [Example 187, (3S,6S,7S)—N-(2,4-difluorobenzyl)-12-hydroxy-3,6-dimethyl-1,11-dioxo-1,4,5,6,7,11-hexahydro-3H-2,7-methanopyrido[1,2-a][1,4]diazonine-10-carboxamide]
EC50 (HIV-1 (IIIB)): 1.18 nM | CC50 at 5 days [1]: 10800 nM | EC50 (pLai RLuc reporter virus; [2]): 44 nM | EC50 (pLai RLuc reporter virus; [3]): 0.383 nM

O=C(NCc1c(F)cc(F)cc1F)c1cn2c(c(O)c1=O)C(=O)N1C[C@H]2CCc2cc(Cl)ccc21 [Example 48-2, (12R)-2-chloro-7-hydroxy-6,8-dioxo-N-(2,4,6-trifluorobenzyl)-6,8,13,14-tetrahydro-12H-5,12-methanobenzo[e]pyrido[1,2-a][1,4]diazonine-9-carboxamide]
EC50 (HIV-1 (IIIB)): 2.38 nM | CC50 at 5 days [1]: 17600 nM | EC50 (pLai RLuc reporter virus; [2]): 1.52 nM | EC50 (pLai RLuc reporter virus; [3]): 0.358 nM

O=C(NCc1c(F)cc(F)cc1F)c1cn2c(c(O)c1=O)C(=O)N1CC(F)CC[C@H]2C1 (stereo partly drawn) [Example 178, (7S)-4-fluoro-12-hydroxy-1,11-dioxo-N-(2,4,6-trifluorobenzyl)-1,4,5,6,7,11-hexahydro-3H-2,7-methanopyrido[1,2-a][1,4]diazonine-10-carboxamide]
EC50 (HIV-1 (IIIB)): 2.14 nM | CC50 at 5 days [1]: 16700 nM | EC50 (pLai RLuc reporter virus; [2]): 6.56 nM | EC50 (pLai RLuc reporter virus; [3]): 0.43 nM

C[C@@]1(O)CCCN2C[C@@H]1n1cc(C(=O)NCc3ccc(F)cc3F)c(=O)c(O)c1C2=O [Example 14-2, (6R,7S)—N-(2,4-difluorobenzyl)-6,12-dihydroxy-6-methyl-1,11-dioxo-1,4,5,6,7,11-hexahydro-3H-2,7-methanopyrido[1,2-a][1,4]diazonine-10-carboxamide]
EC50 (HIV-1 (IIIB)): 2.7 nM | CC50 at 5 days [1]: 19900 nM | EC50 (pLai RLuc reporter virus; [2]): 0.414 nM | EC50 (pLai RLuc reporter virus; [3]): 0.567 nM

O=C(NCc1ccc(F)cc1F)c1cn2c(c(O)c1=O)C(=O)N1C[C@H]2COc2cc(F)c(F)cc21 [Example 92-2, (6S)—N-(2,4-difluorobenzyl)-10,11-difluoro-1-hydroxy-2,14-dioxo-2,6,7,14-tetrahydro-6,13-methanobenzo[b]pyrido[2,1-f][1,4,7]oxadiazonine-3-carboxamide]
EC50 (HIV-1 (IIIB)): 2.01 nM | CC50 at 5 days [1]: > 39300 nM | EC50 (pLai RLuc reporter virus; [2]): 0.772 nM | EC50 (pLai RLuc reporter virus; [3]): 0.309 nM

CC1=CC[C@H]2CN(C(=O)c3c(O)c(=O)c(C(=O)NCc4c(F)cc(F)cc4F)cn32)[C@H]1C [Example 144-2, (3S,7S)-12-hydroxy-3,4-dimethyl-1,11-dioxo-N-(2,4,6-trifluorobenzyl)-1,6,7,11-tetrahydro-3H-2,7-methanopyrido[1,2-a][1,4]diazonine-10-carboxamide]
EC50 (HIV-1 (IIIB)): 1.98 nM | CC50 at 5 days [1]: 13900 nM | EC50 (pLai RLuc reporter virus; [2]): 4.46 nM | EC50 (pLai RLuc reporter virus; [3]): 0.469 nM

O=C1CC[C@H]2CN(C1)C(=O)c1c(O)c(=O)c(C(=O)NCc3c(F)cc(F)cc3F)cn12 [Example 78, (7S)-12-hydroxy-1,4,11-trioxo-N-(2,4,6-trifluorobenzyl)-1,4,5,6,7,11-hexahydro-3H-2,7-methanopyrido[1,2-a][1,4]diazonine-10-carboxamide]
EC50 (HIV-1 (IIIB)): 9.56 nM | CC50 at 5 days [1]: > 50000 nM | EC50 (pLai RLuc reporter virus; [2]): 3.76 nM | EC50 (pLai RLuc reporter virus; [3]): 1.93 nM

C[C@@H]1C=C[C@H](CF)N2C[C@H]1n1cc(C(=O)NCc3ccc(F)cc3F)c(=O)c(O)c1C2=O [Example 192, (3R,6R,7S)—N-(2,4-difluorobenzyl)-3-(fluoromethyl)-12-hydroxy-6-methyl-1,11-dioxo-1,6,7,11-tetrahydro-3H-2,7-methanopyrido[1,2-a][1,4]diazonine-10-carboxamide]
EC50 (HIV-1 (IIIB)): 0.913 nM | CC50 at 5 days [1]: 5570 nM | EC50 (pLai RLuc reporter virus; [2]): 6.57 nM | EC50 (pLai RLuc reporter virus; [3]): 0.252 nM

C[C@H]1CC[C@H]2CN(C(=O)c3c(O)c(=O)c(C(=O)NCc4c(F)cc(F)cc4F)cn32)[C@H]1C [Example 108-2, (3S,4S,7S)-12-hydroxy-3,4-dimethyl-1,11-dioxo-N-(2,4,6-trifluorobenzyl)-1,4,5,6,7,11-hexahydro-3H-2,7-methanopyrido[1,2-a][1,4]diazonine-10-carboxamide]
EC50 (HIV-1 (IIIB)): 0.917 nM | CC50 at 5 days [1]: 11800 nM | EC50 (pLai RLuc reporter virus; [2]): 1.55 nM | EC50 (pLai RLuc reporter virus; [3]): 0.335 nM

O=C(NCc1ccc(F)cc1F)c1cn2c(c(O)c1=O)C(=O)N1CCC[C@@H](F)[C@@H]2C1 [Example 172-1, (6R,7S)—N-(2,4-difluorobenzyl)-6-fluoro-12-hydroxy-1,11-dioxo-1,4,5,6,7,11-hexahydro-3H-2,7-methanopyrido[1,2-a][1,4]diazonine-10-carboxamide]
EC50 (HIV-1 (IIIB)): 2.4 nM | CC50 at 5 days [1]: 15600 nM | EC50 (pLai RLuc reporter virus; [2]): 42.7 nM | EC50 (pLai RLuc reporter virus; [3]): 0.689 nM

O=C(NCc1c(F)cc(F)cc1F)c1cn2c(c(O)c1=O)C(=O)N1CCC[C@@H](O)C[C@H]2C1 [Example 82-2, (6R,8S)-6,13-dihydroxy-1,12-dioxo-N-(2,4,6-trifluorobenzyl)-1,3,4,5,6,7,8,12-octahydro-2,8-methanopyrido[1,2-a][1,4]diazecine-11-carboxamide]
EC50 (HIV-1 (IIIB)): 9.57 nM | CC50 at 5 days [1]: > 50000 nM | EC50 (pLai RLuc reporter virus; [2]): 3 nM | EC50 (pLai RLuc reporter virus; [3]): 2.09 nM
